The SangsterLogP compilation

Test: from Büchel, K. H., & Draber, W. (1969). Structure-activity relationship of photosynthesis inhibition by NH-acidic pi-excessive heteroaromatics. In H. Metzner (Ed.), Progress in Photosynthesis Research: …
Settings: pH 7.3

Going from FC(F)(F)c1nc2ncc(Cl)cc2[nH]1 to FC(F)(F)c1nc2ncccc2[nH]1, the logD falls from 2.46 to 1.38.

Compared with FC(F)(F)c1nc2nc3ccccc3nc2[nH]1, FC(F)(F)c1nc2nc3cc(Cl)ccc3nc2[nH]1 is higher in logD: 3.08 for the first, 3.91 for the second.

Compared with FC(F)(F)c1nc2cnccc2[nH]1, FC(F)(F)c1nc2nc3c(Cl)cc(Cl)cc3nc2[nH]1 is higher in logD: 0.94 for the first, 5.18 for the second.

Test: not given
Settings: not given

Compared with Brc1n[nH]c(Br)n1, Brc1nn[nH]c1Br is higher in logP: 2.24 for the first, 2.44 for the second.

Going from FC(F)(F)c1nc2c(Cl)cc(Cl)cc2[nH]1 to FC(F)(F)c1nc2c(Cl)c(Cl)c(Cl)cc2[nH]1, the logP rises from 3.49 to 3.87.

First: FC(F)(F)c1nc2c(Br)c(Br)c(Br)c(Br)c2[nH]1
Second: FC(F)(F)c1nc2c(Br)c(Br)c(Br)cc2[nH]1
The logP of the first is higher: 4.81 for the first, 4.08 for the second.

Going from FC(F)(F)c1nc2c(Cl)ccc(Cl)c2[nH]1 to FC(F)(F)c1nc2c(Cl)c(Cl)ccc2[nH]1, the logP rises from 2.87 to 3.49.

Going from Cc1c(C)c(Cl)c2[nH]c(C(F)(F)F)nc2c1Cl to FC(F)(F)c1nc2c(Cl)c(Cl)c(Cl)c(Cl)c2[nH]1, the logP rises from 3.19 to 3.97.

CCCCCCCCc1ccc2[nH]c(C(F)(F)F)nc2c1 and CCCCc1ccc2[nH]c(C(F)(F)F)nc2c1 are within 0.2 log units of each other in logP: 4.38 for the first, 4.27 for the second.

First: O=[N+]([O-])c1ccc2[nH]c(C(F)(F)F)nc2c1
Second: FC(F)(F)c1nc2cc(Br)ccc2[nH]1
The logP of the first is lower: 2.68 for the first, 3.57 for the second.

FC(F)(F)c1nc2cc(Br)c(Br)cc2[nH]1 and FC(F)(F)c1nc2cc(Cl)c(Cl)cc2[nH]1 are within 0.2 log units of each other in logP: 4.15 for the first, 3.99 for the second.

Going from FC(F)(F)c1nc2ccccc2[nH]1 to FC(F)(F)c1nc2cc(Cl)ccc2[nH]1, the logP rises from 2.67 to 3.39.

Going from FC(F)(F)c1nc2c(Cl)cccc2[nH]1 to FC(F)(F)c1nc2c(Cl)c(Cl)cc(Cl)c2[nH]1, the logP rises from 2.93 to 3.78.

First: Cc1cc2nc[nH]c2cc1C
Second: CSc1nc2cc(Cl)ccc2[nH]1
The logP of the first is lower: 2.35 for the first, 3.22 for the second.

Going from Brc1nc(Br)c2[nH]c(Br)nc2n1 to Clc1nc(Cl)c(Cl)[nH]1, the logP falls from 3.08 to 1.85.

Ic1nc(I)c(I)[nH]1 showed a logP of 2.78.
